This is an account of results in ChEMBL document CHEMBL1201862, “PubChem BioAssay data set” (2004).

Where “and” joins values, the source holds several entries; their conditions need not be identical. Equal values may be shown once.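 Following 48 hours of exposure in 96-well plates, responses at five concentrations were used to interpolate endpoints linearly. At the GI50, growth is halved.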 Calls of active or inactive are those of the source. Rule as the data show it: active = GI50 up to about 1.1 µM and inactive = higher.

What all share (assay): DTP human tumour cell line panel, 48 h
The subject of assay [1] is A498.
The test system of assay [2] is OVCAR-3.
Assay [3] concerns DU-145.
Assay [4] relates to ACHN.
For assay [5], the system named is UACC-62.
The subject of assay [6] is HL-60.
The test system of assay [7] is NCI-H226.
In assay [8] the test system is KM12.
The subject of assay [9] is HOP-92.
For assay [10], the system named is TK-10.
Assay [11] deals with COLO 205.
The test system of assay [12] is MDA-MB-231.
Assay [13] deals with HCT-15.
In assay [14] the test system is SNB-75.
For assay [15], the system named is RPMI-8226.
For assay [16], the system named is SR.
Assay [17] has as its system Hs-578T.
In assay [18] the test system is K562.
Assay [19] concerns UO-31.
Assay [20] concerns IGROV-1.

As usually defined, the GI50 is the concentration giving 50% growth inhibition. Consider `O=Cc1ccc(Oc2c3ccccc3nc3ccccc23)cc1`, for which the 50% growth inhibitory concentration (GI50) in assay [1] is 0.869 µM (active); in assay [2], 10.9 µM (inactive); in assay [3] it was 3.84 µM (inactive); in assay [4], 3.61 µM (inactive); in [5], 0.46 µM (active); in assay [6] it was < 0.01 µM (active). The GI50 is 4.03 µM (inactive) in [7]; 11.1 µM (inactive) in [8]; 4.74 µM (inactive) in assay [9]; 6.03 µM (inactive) in assay [10]; 3.42 µM (inactive) in assay [11]; 2.29 µM (inactive) in [12]. In addition, the GI50 is 4.16 µM in assay [13]; 15.5 µM (inactive) in assay [14]; 2.39 µM (inactive) in [15]; 0.053 µM (active) in [16]; 2.53 µM (inactive) in [17].

With `COC(=O)C1=COC(C)C2CN3CCc4c([nH]c5cc(OC)c(OC)cc45)C3CC12` (centres undefined), the GI50 in assay [1] was > 100 µM (inactive) and 87.7 µM (inactive); in [2], 58.3 µM (inactive); in assay [3], > 100 µM (inactive) and 98.9 µM (inactive); in assay [4], 36.3 µM (inactive) and 31.3 µM (inactive); in [5], 99.8 µM (inactive) and 88.7 µM (inactive); in assay [6], 26.6 µM (inactive) and 29.9 µM (inactive). For the same compound, the GI50 was > 100 µM (inactive) and 61.5 µM (inactive) in assay [7]; 38.4 µM (inactive) and 37.8 µM (inactive) in [18]; 22 µM (inactive) and 40.8 µM (inactive) in [9]; > 100 µM (inactive) and 87.1 µM (inactive) in [10]; 51.1 µM (inactive) and 54.2 µM (inactive) in assay [19]; 34.9 µM (inactive) and 29.9 µM (inactive) in [11]. For the same compound, the GI50 in assay [12] was > 100 µM (inactive); in assay [13], 43.8 µM and 25.1 µM; in assay [15], 27.9 µM (inactive); in assay [16] it was 31 µM (inactive) and 58.6 µM (inactive); in assay [17], > 100 µM (inactive) and 54 µM (inactive).

Consider `Cc1cnc2sn(-c3ccc(Br)cc3)c(=O)c2c1`, for which the GI50 in [2] was 22.2 µM (inactive); in assay [3] it was 50.5 µM (inactive); in assay [4] it was 35.6 µM (inactive); in [5] it was 33.4 µM (inactive); in [6] it was 18.3 µM (inactive); in assay [7], 52 µM (inactive). Also, the GI50 is 74.8 µM (inactive) in assay [8]; 26.9 µM (inactive) in [9]; 93.5 µM (inactive) in [10]; 43.9 µM (inactive) in assay [19]; 26.8 µM (inactive) in assay [11]; 30.5 µM (inactive) in assay [12]. In addition, the GI50 in assay [13] was 26.6 µM; in assay [14], 84.9 µM (inactive); in [15], 33.2 µM (inactive); in assay [20] it was 53.6 µM (inactive); in assay [16] it was 40.7 µM (inactive); in assay [17], 30.7 µM (inactive).

In the case of `CCSc1nnc2c(-c3ccccc3)n[nH]c2n1`, the GI50 in assay [2], in assay [3], in [4], in assay [5], in assay [6] and in [7] was > 100 µM (inactive) throughout. Also, the GI50 in assay [8] was > 100 µM (inactive); in [18] it was > 100 µM (inactive); in assay [9], 37.4 µM (inactive); in assay [10], > 100 µM (inactive); in assay [19], > 100 µM (inactive); in assay [11] it was > 100 µM (inactive). Besides, the GI50 in assay [12] is > 100 µM (inactive); in assay [13], above 100 µM; in assay [14], 27.2 µM (inactive); in [15], > 100 µM (inactive); in assay [20] it was > 100 µM (inactive); in assay [16], > 100 µM (inactive). Further, in assay [17], the GI50 was 30.4 µM (inactive).

Take `O=C1C(=Cc2ccco2)C(=O)C2CCCCC12` (centres undefined): the GI50 in assay [1], in [2], in assay [3], in [4], in assay [5] and in assay [7] was > 100 µM (inactive) in each case. Besides, the GI50 was > 100 µM (inactive) in assay [8]; 17.6 µM (inactive) in assay [18]; > 100 µM (inactive) in assay [9]; > 100 µM (inactive) in assay [10]; > 100 µM (inactive) in assay [11]; > 100 µM (inactive) in assay [12]. The GI50 is above 100 µM in [13]; > 100 µM (inactive) in [14]; > 100 µM (inactive) in assay [15]; > 100 µM (inactive) in assay [20]; > 100 µM (inactive) in [16]; > 100 µM (inactive) in [17].

Turning to `C=C[C@]1(C)CC(=O)C(C(C)C=O)[C@]12C(=O)Oc1cccc(C)c1C2=O` (some centres undefined), the GI50 in assay [1] was 25.9 µM (inactive); in assay [2], 15.9 µM (inactive); in [3] it was 16.8 µM (inactive); in [4], 15.6 µM (inactive); in assay [5] it was 16.1 µM (inactive); in assay [6], 4 µM (inactive). For the same compound, the GI50 was 15.3 µM (inactive) in assay [7]; 14.7 µM (inactive) in assay [8]; 12.9 µM (inactive) in assay [18]; 14.8 µM (inactive) in assay [10]; 15.5 µM (inactive) in assay [19]; 17.3 µM (inactive) in assay [11]. For the same compound, the GI50 is 17.6 µM (inactive) in [12]; 14.9 µM in [13]; 16.4 µM (inactive) in assay [14]; 8.22 µM (inactive) in assay [15]; 27 µM (inactive) in assay [16]; 16.3 µM (inactive) in assay [17].

In the case of `CCOC(=O)c1ccc(NCC#CCN2CCOCC2)cc1`, the GI50 was > 100 µM (inactive) in assay [1]; > 100 µM (inactive) in assay [2]; > 100 µM (inactive) in assay [3]; 46 µM (inactive) in [4]; 34.8 µM (inactive) in [5]; 48.1 µM (inactive) in [6]. In addition, the GI50 in assay [7] was 70.3 µM (inactive); in [8] it was > 100 µM (inactive); in assay [18], 38.6 µM (inactive); in assay [9] it was > 100 µM (inactive); in assay [19], > 100 µM (inactive); in assay [11], 38 µM (inactive). The GI50 in assay [12] is > 100 µM (inactive); in assay [13], 62.4 µM; in assay [15] it was > 100 µM (inactive); in [20], > 100 µM (inactive); in [16], > 100 µM (inactive); in assay [17], > 100 µM (inactive).

Consider `CC(=O)SCCC(NC(=S)Nc1ccccc1)P(=O)(Oc1ccccc1)Oc1ccccc1` (centres undefined), for which the GI50 in assay [2], in assay [3], in assay [4], in assay [5], in assay [6] and in [7] was > 100 µM (inactive) throughout. Further, the GI50 in assay [8] is > 100 µM (inactive); in assay [18], > 100 µM (inactive); in assay [9], > 100 µM (inactive); in assay [10], 60.8 µM (inactive); in [19] it was > 100 µM (inactive); in [11] it was > 100 µM (inactive). Also, the GI50 in assay [12] was > 100 µM (inactive); in assay [13], above 100 µM; in assay [14] it was > 100 µM (inactive); in assay [20], > 100 µM (inactive); in [16] it was > 100 µM (inactive); in [17], > 100 µM (inactive).

Turning to `CC1(C)CC[C@]2(C(=O)O)CC[C@]3(C)C(=CC[C@@H]4[C@@]5(C)C[C@H](O)[C@H](O)[C@@](C)(CO)C5=CC[C@]43C)[C@@H]2C1`, the GI50 in [1] is > 100 µM (inactive); in assay [2] it was > 100 µM (inactive); in assay [3], 39.6 µM (inactive); in assay [4], 34.8 µM (inactive); in assay [5], > 100 µM (inactive); in assay [6], > 100 µM (inactive). The GI50 in [8] is 21.4 µM (inactive); in assay [18], 50 µM (inactive); in assay [9] it was > 100 µM (inactive); in assay [10], > 100 µM (inactive); in [19], 39.3 µM (inactive); in assay [11] it was 22.5 µM (inactive). Moreover, the GI50 was > 100 µM (inactive) in assay [12]; 40.7 µM in [13]; 32.1 µM (inactive) in assay [14]; 50.5 µM (inactive) in assay [15]; 31.1 µM (inactive) in assay [20]; > 100 µM (inactive) in assay [16]. In addition, in assay [17], the GI50 was 37.7 µM (inactive).

For `CN1CCN(Cc2cc3c(nn2)-c2ccccc2C3=O)CC1`, the GI50 was > 100 µM (inactive) in assay [3]; 26.2 µM (inactive) in assay [4]; 44.4 µM (inactive) in assay [5]; 21 µM (inactive) in assay [6]; > 100 µM (inactive) in assay [7]; 59.2 µM (inactive) in assay [8]. The GI50 was 47.1 µM (inactive) in assay [18]; > 100 µM (inactive) in assay [9]; > 100 µM (inactive) in [10]; 32.7 µM (inactive) in assay [19]; 17.7 µM (inactive) in assay [11]; > 10 µM (inactive) in assay [12]. Also, the GI50 in assay [13] is 26.2 µM; in assay [14] it was > 100 µM (inactive); in assay [15], > 100 µM (inactive); in [20], 38.5 µM (inactive); in assay [16], 18.3 µM (inactive); in [17], > 100 µM (inactive).

In the case of `Oc1ccc(/C=C/c2ccc3cccc(O)c3n2)cc1O`, the GI50 in assay [1] is 11.5 µM (inactive); in assay [2] it was 10.9 µM (inactive); in [3] it was 2.79 µM (inactive); in [4], 3.42 µM (inactive); in [5], 4.79 µM (inactive); in assay [6] it was 1.96 µM (inactive). The GI50 in [8] was 5.45 µM (inactive); in [18], 3.69 µM (inactive); in assay [9] it was 15.9 µM (inactive); in [10], 9.31 µM (inactive); in assay [19], 2.74 µM (inactive); in [11] it was 14.3 µM (inactive). Also, the GI50 was 23 µM (inactive) in [12]; 3.29 µM in assay [13]; 4.74 µM (inactive) in assay [14]; 0.692 µM (active) in assay [15]; 1.44 µM (inactive) in assay [20]; 3.22 µM (inactive) in [16]. Moreover, the GI50 in [17] was 36.1 µM (inactive).
